Data reported in article PMC12444563 (ACS Omega, 2025).
Where two headings read alike, the source gives them in different places.

Legend:
[1] = target: T1, bovine spleen Cathepsin B (Bos taurus, UniProt P07688); experiment: Cathepsin B cleavage assay (UHPLC-HRMS Orbitrap analysis); assay type: biochemical; conditions: for % residual compound, Average %: 37 °C, pH 5.4, 5 μM, triplicate
T1 construct: bovine spleen Cathepsin B (SigmaAldrich C6286, ≥10 units/mg protein); purchased SigmaAldrich C6286; host or cells: bovine spleen (tissue-derived)
Description: The Cathepsin B cleavage assay was performed by incubating compounds 1–4 at 37 °C under gently shaking conditions in the presence of the active form of Cathepsin B. More specifically, 122.4 μL of an enzyme-activating solution (composed of 7.48 mg of L-cysteine dissolved in 2 mL of a buffer solution containing 20 mM NaOAc, 1 mM EDTA, pH 5.4 to give a final cysteine concentration of 30.88 mM) was mixed with 12.6 μL of enzyme stock solution, previously prepared by solubilization of bovine spleen Cathepsin B (SigmaAldrich C6286, ≥10 units/mg protein) in 1 mL of buffer solution (without cysteine) to give a concentration of enzyme stock solution of 12 units/mL. After the dilution, the final concentration of Cathepsin B was 1.12 u/mL. Then, the diluted enzyme solution was incubated at 37 °C for 15 min to activate Cathepsin B. After 15 min, 6 μL of 117 μM compound solution, previously prepared by diluting 5.85 μL of 1 mM stock solution of the compound in 44.15 μL of dry DMSO (giving a 117 μM solution), was added to the test tube and the cleavage assay solution was incubated at 37 °C under gentle shaking conditions. […] The solutions were then centrifuged for 10 min at 6000 rpm. Blank solutions were prepared for each compound by dilution of 6 μL of a 117 μM compound solution into 135 μL of an enzyme-activating solution. UHPLC-MS analyses were carried out using a Vanquish UHPLC System (Thermo Fisher Scientific) and Orbitrap Exploris 120 (Thermo Fisher Scientific). Thermo Scientific Xcalibur software was used to control the instruments and acquire the data. Freestyle 1.8 software was used for processing the data. UHPLC chromatographic separations were performed on a reversed-phase column Accucore C18 50 × 2.1 mm, 2.6 μm (Thermo Fisher Scientific). A gradient system was used with the mobile phase consisting of solvent A: H2O + 0.05% formic acid and solvent B: acetonitrile. The areas of the peak of compounds 1–4 in the extracted ion chromatogram were used to evaluate the kinetics of the cleavage process. The percentage of residual compound was calculated as the ratio between the areas of the peak of the full compound at the desired time point and in the blank analysis. %Residualcompound=areacompoundatthedesiredtimepoint/areacompoundintheblanksolution×100

[2] = pH stability assay (buffers pH 5.4 and 7.4, UHPLC-HRMS); assay type: physicochemical; conditions: 37 °C, average of two replicates
Description: The pH stability assay was performed by incubating compounds 1–4 at 37 °C in buffers at pH 5.4 and 7.4 under gentle shaking conditions. More specifically, a solution of 20 mM AcONa and 1 mM EDTA in mQ water was used as a pH 5.4 buffer. A solution of PBS tablets in mQ water was used as a pH 7.4 buffer. A 1 mM stock solution of compounds 1–4 in dry DMSO was prepared and a […] solution was then obtained by dilution of 5.85 μL of the stock solution in 44.15 μL of dry DMSO. Then, 6 μL of the […] compound solution was diluted into 135 μL of the desired buffer, and the solution was incubated at 37 °C under gently shaking conditions. Samples aliquots (10 μL) were taken out at 15, 30 min and 1, 2, and 4 h and quenched with 10 μL of acetonitrile. The solutions were then injected in UHPLC-HRMS to monitor the stability of compounds 1–4 under different pH conditions. UHPLC-MS analyses were carried out as previously described for the Cathepsin B cleavage assay. The percentage of the residual compound was calculated as described above.
The stability of compounds 1–4 and of the free drug PTX was evaluated in vitro by UHPLC-Orbitrap analysis incubating the samples at 37 °C in buffer solutions at pH 5.4, to simulate the pH inside the cancer cells, and at physiological pH 7.4. The same buffer of the Cathepsin B cleavage assay was used for the test at pH 5.4. The percentage of residual compounds 1–4 was measured over time by calculating the ratio between the areas of the peak of the full compound at the desired time point and at time zero, and the results were compared with the percentage of residual compounds 1–4 calculated during the Cathepsin B cleavage assay (Tables S6).

[3] = Plasma stability assay, rat plasma; assay type: in vitro ADME, rat (Sprague Dawley); conditions: Sprague Dawley, 37 °C, read-out: Plasma stability (matrix: rat) % remaining; for remaining at 0.5 h, 1 μM: 30 min; for remaining at 2 h, 1 μM: 120 min; for remaining at 4 h, 1 μM: 240 min (4 h)
Description: (§1) The plasma stability assays were performed by Selvita SA (Krakow, Poland) following the protocol described in the Supporting Information. For the use of human plasma, consent was obtained from the subject or from the next of kin.
(§2) 9. Plasma stability assays
(§3) Protocol for full plasma assay: a stock solution of compounds 1-4 in DMSO was incubated in human (Anticoagulants: Na Heparin; Gender: Pooled; Cat. No: IPLANAH100ML; Lot: 37921; Supplier:
(§4) Innovative Research) and rat (Strain: Sprague Dawley; Anticoagulants: Na Heparin; Cat. No:
(§5) IGRTSDPLANAH100ML; Supplier: Innovative Research) plasma at a final concentration of 1 μM (final concentration of DMSO = 1 %). The samples were incubated at 37 °C with a shaking of 450 rpm. Aliquots of the samples were analyzed at time 0, 30 minutes, 2 and 4 hours by LC-MS/MS […]
(§6) The areas of the peak of the compounds 1-4 in the LC chromatogram were used to evaluate stability profile. The percentage of residual compounds 1-4 was calculated as the ratio between the area of the peak of the analyte and the area of the internal standard.
(§7) % residual compound = Area analyte ∙ 100
(§8) Table S7. LC-MS data of the stability assays in plasma extracts of compound 1.
(§9) Stability assays compound 1
(§10) Time Plasma stability Plasma stability S9 stability S9 stability
(§11) (min.) (matrix: rat) (matrix: human) Time (min.) (matrix: rat) (matrix: human) % remaining % remaining % remaining % remaining
(§12) Table S8. LC-MS data of the stability assays in plasma extracts of compound 2.
(§13) Stability assays compound 2

[4] = Plasma stability assay, human plasma; assay type: in vitro ADME; conditions: both sexes, 37 °C, read-out: Plasma stability (matrix: human) % remaining; for remaining at 0.5 h, 1 μM: 30 min; for remaining at 2 h, 1 μM: 120 min; for remaining at 4 h, 1 μM: 240 min (4 h)
Description: as §1, §2, §3, §4, §5, §6, §7, §8, §9, §10, §11, §12, §13

[5] = 2 min incubation with Cathepsin B
[6] = 15 min incubation with Cathepsin B
[7] = 30 min incubation with Cathepsin B
[8] = 60 min incubation with Cathepsin B
[9] = 120 min incubation with Cathepsin B

| SMILES | % residual compound, Average % [1, 5] [%] | % residual compound, Average % [1, 6] [%] | % residual compound, Average % [1, 7] [%] | % residual compound, Average % [1, 8] [%] | % residual compound, Average % [1, 9] [%] | % residual compound, % R1 ([1]; replicate R1, 2 min) [%] | % residual compound, % R1 ([1]; replicate R1, 15 min) [%] | % residual compound, % R1 ([1]; replicate R1, 30 min) [%] | % residual compound, % R1 ([1]; replicate R1, 60 min) [%] | % residual compound, % R1 ([1]; replicate R1, 120 min) [%] | % residual compound, % R1 ([1]; replicate R1, 240 min) [%] | % residual compound, % R3 ([1]; replicate R3, 2 min) [%] | % residual compound, % R3 ([1]; replicate R3, 15 min) [%] | % residual compound, % R3 ([1]; replicate R3, 30 min) [%] | % residual compound, % R3 ([1]; replicate R3, 60 min) [%] | % residual compound, % R3 ([1]; replicate R3, 120 min) [%] | % residual compound, % R3 ([1]; replicate R3, 240 min) [%] | Stability pH 7.4, % residual compound ([2]; pH 7.4 PBS, 120 min) [%] | also measured |
| --- | --- | --- | --- | --- | --- | --- | --- | --- | --- | --- | --- | --- | --- | --- | --- | --- | --- | --- | --- |
| CC(=O)O[C@H]1C(=O)[C@@]2(C)[C@H]([C@H](OC(=O)c3ccccc3)[C@]3(O)C[C@H](OC(=O)[C@H](OC(=O)N(C)CCN(C)C(=O)OCc4ccc(NC(=O)[C@H](CCCNC(N)=O)NC(=O)[C@@H](NC(=O)OCC5c6ccccc6-c6ccccc65)C(C)C)cc4)[C@@H](NC(=O)c4ccccc4)c4ccccc4)C(C)=C1C3(C)C)[C@]1(OC(C)=O)CO[C@@H]1C[C@@H]2O [Compound 3, Fmoc-VCit-PABC-diamine-PTX] | 99.48 | 89.60 | 88.90 | 82.88 | 80.39 | 91.44 | 87.83 | 70.58 | 80.56 | 76.58 | 81.21 | 106.03 | 90.55 | 97.99 | 89.93 | 81.32 | 71.70 | 95.93 | % residual compound, Average % ([1]; 240 min (4 h) incubation with Cathepsin B): 76%; remaining at 4 h, 4.98 µM ([2]; PBS pH 7.4, pH 7.4, pH 7.4 PBS, 240 min, read-out: Stability pH 7.4, % residual compound): 92%; remaining at 2 h, 4.98 µM ([2]; acetate/EDTA buffer pH 5.4, pH 5.4, pH 5.4 buffer, 120 min, read-out: Stability pH 5.4, % residual compound): 96.6%; remaining at 4 h, 4.98 µM ([2]; acetate/EDTA buffer pH 5.4, pH 5.4, pH 5.4 buffer, 240 min (4 h), read-out: Stability pH 5.4, % residual compound): 89.9%; Stability pH 5.4, % residual compound ([2]; pH 5.4 buffer, 30 min): 96.15%; Stability pH 7.4, % residual compound ([2]; pH 7.4 PBS, 30 min): 95.79%; remaining at 0.5 h, 1 μM [3]: 123%; remaining at 2 h, 1 μM [3]: 113%; remaining at 4 h, 1 μM [3]: 118%; remaining at 0.5 h, 1 μM [4]: 102%; remaining at 2 h, 1 μM [4]: 98.3%; remaining at 4 h, 1 μM [4]: 77.1% |
| CC(=O)O[C@H]1C(=O)[C@@]2(C)[C@H]([C@H](OC(=O)c3ccccc3)[C@]3(O)C[C@H](OC(=O)[C@H](OC(=O)N(C)CCN(C)C(=O)OCc4ccc(NC(=O)[C@H](C)NC(=O)[C@@H](NC(=O)OCC5c6ccccc6-c6ccccc65)C(C)C)cc4)[C@@H](NC(=O)c4ccccc4)c4ccccc4)C(C)=C1C3(C)C)[C@]1(OC(C)=O)CO[C@@H]1C[C@@H]2O [Compound 4, Fmoc-VA-PABC-diamine-PTX] | 98.31 | 89.84 | 76.32 | 72.91 | 58.50 | 105.08 | 98.99 | 79.84 | 76.95 | 61.83 | 68.01 | 98.31 | 83.72 | 80.54 | 75.94 | 52.91 | 49.81 | 96.21 | remaining at 0.5 h, 4.98 µM ([2]; PBS pH 7.4, pH 7.4 PBS, 30 min, read-out: Stability pH 7.4, % residual compound): 94.7%; remaining at 0.5 h, 4.98 µM ([2]; acetate/EDTA buffer pH 5.4, pH 5.4 buffer, 30 min, read-out: Stability pH 5.4, % residual compound): 90.8%; remaining at 2 h, 4.98 µM ([2]; acetate/EDTA buffer pH 5.4, pH 5.4 buffer, 120 min, read-out: Stability pH 5.4, % residual compound): 52.5%; remaining at 4 h, 4.98 µM ([2]; acetate/EDTA buffer pH 5.4, pH 5.4 buffer, 240 min (4 h), read-out: Stability pH 5.4, % residual compound): 47.5%; Stability pH 5.4, % residual compound ([2]; pH 5.4 buffer, 240 min (4 h)): 47.4%; Stability pH 7.4, % residual compound ([2]; pH 7.4 PBS, 240 min): 95.00%; remaining at 0.5 h, 1 μM ([3]; rat, plasma): 96.1%; remaining at 2 h, 1 μM ([3]; rat, plasma): 104%; remaining at 4 h, 1 μM ([3]; rat, plasma): 108%; remaining at 0.5 h, 1 μM ([4]; human, plasma): 101%; remaining at 2 h, 1 μM ([4]; human, plasma): 106%; remaining at 4 h, 1 μM ([4]; human, plasma): 107% |
